The target in data set [1] is Histamine H2 receptor (Rattus norvegicus) (UniProt P25102). The experiment in a line: Antagonist at histamine H2 receptor in rat uterus assessed as inhibition of histamine-induced response. Type of data set: tissue-based.
In data set [2] the target is Histamine H2 receptor (Cavia porcellus) (UniProt P47747). The experiment in a line: Antagonist at histamine H2 receptor in guinea pig atrium assessed as inhibition of histamine-induced response. To be noted: Cardiac atrium.
Data set [3] can be described thus: Octanol-water partition coefficient, P of the compound at 37 degC.
Data set [4] is described as follows: Ionization constant, pKa of the compound. Type of data set: physicochemical.
Data set [5] can be described thus: Octanol-water partition coefficient, log P of the compound at 37 degC. Type of data set: physicochemical.
The nature of data set [6]: Solubility of the compound in water at 37 degC. It is filed as physicochemical. To be noted: buffer.
Data set [7] is described as follows: Octanol-water partition coefficient, log P of the compound at pH 9.2. It is filed as physicochemical.
Data set [8] can be described thus: Ionization constant, pKa of the imidazole ring of the compound. It is filed as physicochemical.

The record followed here is ChEMBL document CHEMBL3244335 (J Med Chem, 1977).

In general, Kb refers to the affinity of an antagonist, worked out from how it opposes an agonist. As a reminder, the pKa is the negative logarithm of the acid dissociation constant. Higher therefore signals a group that holds its proton tightly. One may read the logP as the decadic logarithm of the partition coefficient of the neutral form, usually between octanol and water.

Sequence of Histamine H2 receptor (Cavia porcellus) (P47747 whole entry): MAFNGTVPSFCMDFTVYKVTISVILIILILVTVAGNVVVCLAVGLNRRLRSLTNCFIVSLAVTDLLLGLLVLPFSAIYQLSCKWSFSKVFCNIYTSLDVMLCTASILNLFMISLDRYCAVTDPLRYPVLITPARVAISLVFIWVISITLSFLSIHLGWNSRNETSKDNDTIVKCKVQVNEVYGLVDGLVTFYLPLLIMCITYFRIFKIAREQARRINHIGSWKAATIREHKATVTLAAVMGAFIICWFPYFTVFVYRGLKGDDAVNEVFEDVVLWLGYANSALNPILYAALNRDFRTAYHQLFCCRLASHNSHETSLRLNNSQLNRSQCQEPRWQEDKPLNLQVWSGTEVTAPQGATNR
Sequence of Histamine H2 receptor (Rattus norvegicus) (P25102 whole entry): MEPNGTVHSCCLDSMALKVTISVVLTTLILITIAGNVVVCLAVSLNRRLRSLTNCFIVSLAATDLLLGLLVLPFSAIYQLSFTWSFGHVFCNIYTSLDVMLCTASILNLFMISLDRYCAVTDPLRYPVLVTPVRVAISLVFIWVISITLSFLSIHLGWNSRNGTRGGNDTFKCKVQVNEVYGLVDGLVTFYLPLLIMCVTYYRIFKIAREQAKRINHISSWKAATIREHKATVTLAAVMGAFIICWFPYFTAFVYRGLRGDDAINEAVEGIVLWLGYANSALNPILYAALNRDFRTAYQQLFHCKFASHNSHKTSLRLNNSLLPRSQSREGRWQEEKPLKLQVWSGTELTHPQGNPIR

As for `CNC(=N)NCCSCc1nc[nH]c1C`, the results for the antagonist equilibrium constant (Kb) in data set [1] and in data set [2] were 5.5 µM and 16 µM, respectively.
As for `NC(N)=S` [THIOUREA], in data set [3], the P is 0.09. The same compound returned a pKa in data set [4] of -1.2.
For `CNC(=NC#N)NC`, the logP in data set [5] was -0.398.
In the case of `CN/C(=N\C#N)NCCCCc1c[nH]cn1`, the Kb in data set [1] was found to be 7.1 µM; in data set [2], 8.3 µM.
In data set [4], `N#CNC(=N)N` registered a pKa of -0.4. The logP in data set [5] was -1.16.
`N=C(N)N` [GUANIDINE] had a pKa in data set [4] of 13.6.
As to `CN/C(=N/CCSCc1nc[nH]c1C)NC#N` [CIMETIDINE], in data set [6], the solubility is reported as 1.14%. For the same compound, the logP in data set [7] is 2.5.
As for `CNC(=S)NCCSCc1c[nH]cn1`, the Kb in data set [1] and in data set [2] was 3.2 µM throughout.
As to `CNC(=S)NCCCCc1nc[nH]c1C`, the Kb in data set [1] turned out to be 10.7 µM; in data set [2], 8.9 µM.
In the case of `CNC(=S)NCCSCc1[nH]cnc1C`, the Kb was 0.75 µM in data set [1] and 0.92 µM in data set [2].
As to `C/N=C(/NCCSCc1[nH]cnc1C)N[N+](=O)[O-]`, the Kb in data set [1] and in data set [2] was 1.4 µM each time.
`CN/C(=N/C#N)NCCCCc1nc[nH]c1C`: the values for the Kb in data set [1] and in data set [2] were 4.9 µM and 8.1 µM, respectively.
For `C/N=C(\S)NCCCCc1c[nH]cn1` the same measures were 6.6 µM and 7.8 µM.
As for `CNC(=O)NCCSCc1[nH]cnc1C`, the Kb in data set [1] was 7.1 µM; in data set [2], 22 µM.
Consider `C/N=C(\S)NCCSCc1[nH]cnc1C` [METIAMIDE], for which, in data set [8], the pKa was 6.8. The compound also gave a solubility in data set [6] of 0.32%. The logP in data set [7] (read-out: logP (converted)) was 0.505.
In data set [5], `CNC(=S)NC` showed a logP of -0.237.
For `CN/C(=N\C(N)=O)NCCSCc1nc[nH]c1C`, the Kb in data set [1] stood at 6.9 µM; in data set [2], 7.1 µM.
With `CN/C(=N\CCSCc1nc[nH]c1C)NC#N`, the Kb in data set [1] turned out to be 0.81 µM.
As to `CN/C(=N\C#N)NCCSCc1c[nH]cn1`, the Kb was 1.6 µM in data set [1] and 1.4 µM in data set [2].
